Patent US8497361B2, “Topoisomerase binding probe and method of use” (priority 2010, dated 2013)

Tests used:
[1] = target: F. tularensis GyrB (Francisella tularensis subsp. tularensis, UniProt Q5NHE7); assay: biochemical; assay type: binding
[2] = target: T1, E. coli gyrase A2B2 heterotetramer (Escherichia coli, UniProt P0AES6); assay: Gyrase activity assay (supercoiling of relaxed plasmid DNA); assay type: biochemical; settings: 50 μM compound, 0.5 μg relaxed DNA, 1 hour at 37° C., agarose gel
T1 construct: purchased Topogen

F. tularensis GyrB, sequence (Q5NHE7 1-805): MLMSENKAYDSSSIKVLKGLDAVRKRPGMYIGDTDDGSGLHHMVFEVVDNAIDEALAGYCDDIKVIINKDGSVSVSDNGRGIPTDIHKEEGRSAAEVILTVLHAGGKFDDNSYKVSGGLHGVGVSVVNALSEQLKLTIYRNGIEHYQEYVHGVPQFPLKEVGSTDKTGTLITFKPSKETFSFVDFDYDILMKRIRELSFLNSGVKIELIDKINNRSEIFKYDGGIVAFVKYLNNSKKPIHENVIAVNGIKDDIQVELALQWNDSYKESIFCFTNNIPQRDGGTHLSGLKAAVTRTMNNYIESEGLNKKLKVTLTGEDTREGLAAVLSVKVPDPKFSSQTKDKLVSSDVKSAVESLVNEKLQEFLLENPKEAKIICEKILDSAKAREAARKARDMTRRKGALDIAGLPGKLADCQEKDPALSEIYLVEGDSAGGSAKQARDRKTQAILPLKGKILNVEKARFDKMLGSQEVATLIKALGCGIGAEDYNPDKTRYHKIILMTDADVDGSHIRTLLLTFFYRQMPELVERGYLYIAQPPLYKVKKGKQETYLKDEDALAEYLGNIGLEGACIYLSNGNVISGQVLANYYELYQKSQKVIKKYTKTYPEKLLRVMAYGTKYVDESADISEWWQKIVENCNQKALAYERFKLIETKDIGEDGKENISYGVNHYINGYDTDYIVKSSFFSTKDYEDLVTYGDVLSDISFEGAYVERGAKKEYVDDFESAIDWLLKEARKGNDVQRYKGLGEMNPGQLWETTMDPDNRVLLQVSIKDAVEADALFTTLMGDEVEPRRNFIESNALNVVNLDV

Compound	Ki [1] [nM]	inhibition of supercoiling of relaxed DNA [2]
COc1cccc2c1C(=O)c1c(O)c3c(c(O)c1C2=O)C[C@@](O)(C(C)=O)C[C@@H]3O[C@H]1C[C@H](N)[C@H](O)[C@H](C)O1 [daunorubicin]	444	less clear
COc1cccc2c1C(=O)c1c(O)c3c(c(O)c1C2=O)C[C@@](O)(C(=O)CO)C[C@@H]3O[C@H]1C[C@H](N)[C@H](O)[C@H](C)O1 [doxorubicin]	94	inhibit supercoiling to the level of the no gyrase control
COc1cccc2c1C(=O)c1c(O)c3c(c(O)c1C2=O)C[C@@](O)(C(=O)CO)C[C@@H]3O[C@H]1C[C@H](N)[C@@H](O)[C@H](C)O1 [epirubicin]	386	inhibit supercoiling to the level of the no gyrase control
CC(=O)[C@]1(O)Cc2c(O)c3c(c(O)c2[C@@H](O[C@H]2C[C@H](N)[C@H](O)[C@H](C)O2)C1)C(=O)c1ccccc1C3=O [idarubicin]	480	less clear
